Assay results reported in ChEMBL document CHEMBL5212743, “Selectivity Literature for EUbOPEN Chemogenomics Library wave 3” (2023).

Legend:
Settings in all cases: at 1 µM
[1] = molecular target: T1, Ephrin type-B receptor 6 (Homo sapiens) (UniProt O15197)
T1 sequence (whole entry): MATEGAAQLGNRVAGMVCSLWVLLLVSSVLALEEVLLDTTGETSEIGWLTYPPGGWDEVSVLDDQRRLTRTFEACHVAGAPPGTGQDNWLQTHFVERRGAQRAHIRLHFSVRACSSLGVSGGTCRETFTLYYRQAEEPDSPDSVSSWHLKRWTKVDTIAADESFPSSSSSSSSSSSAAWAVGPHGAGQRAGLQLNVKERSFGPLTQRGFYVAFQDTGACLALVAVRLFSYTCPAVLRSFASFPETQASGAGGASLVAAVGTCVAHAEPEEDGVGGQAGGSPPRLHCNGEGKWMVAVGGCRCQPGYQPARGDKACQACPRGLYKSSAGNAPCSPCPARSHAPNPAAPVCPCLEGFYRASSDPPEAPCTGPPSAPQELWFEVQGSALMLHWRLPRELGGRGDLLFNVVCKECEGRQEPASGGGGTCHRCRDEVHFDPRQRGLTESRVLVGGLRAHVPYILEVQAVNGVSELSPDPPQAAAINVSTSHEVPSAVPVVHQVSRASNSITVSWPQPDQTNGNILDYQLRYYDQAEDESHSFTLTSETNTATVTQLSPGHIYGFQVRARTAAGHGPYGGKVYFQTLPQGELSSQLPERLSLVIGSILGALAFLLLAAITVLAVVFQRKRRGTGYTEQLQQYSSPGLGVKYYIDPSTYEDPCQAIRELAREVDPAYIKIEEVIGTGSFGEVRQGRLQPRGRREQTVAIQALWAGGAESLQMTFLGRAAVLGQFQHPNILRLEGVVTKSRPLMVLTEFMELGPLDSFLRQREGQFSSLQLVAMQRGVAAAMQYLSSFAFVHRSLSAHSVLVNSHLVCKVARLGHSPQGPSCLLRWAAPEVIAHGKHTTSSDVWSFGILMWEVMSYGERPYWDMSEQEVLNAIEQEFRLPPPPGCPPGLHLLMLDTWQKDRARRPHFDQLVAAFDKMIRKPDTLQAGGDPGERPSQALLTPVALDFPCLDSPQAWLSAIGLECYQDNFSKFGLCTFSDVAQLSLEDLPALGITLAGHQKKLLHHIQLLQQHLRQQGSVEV

Aurora kinase B = Aurora kinase B (Homo sapiens, UniProt Q96GD4)
Chain of Aurora kinase B (Q96GD4 whole entry): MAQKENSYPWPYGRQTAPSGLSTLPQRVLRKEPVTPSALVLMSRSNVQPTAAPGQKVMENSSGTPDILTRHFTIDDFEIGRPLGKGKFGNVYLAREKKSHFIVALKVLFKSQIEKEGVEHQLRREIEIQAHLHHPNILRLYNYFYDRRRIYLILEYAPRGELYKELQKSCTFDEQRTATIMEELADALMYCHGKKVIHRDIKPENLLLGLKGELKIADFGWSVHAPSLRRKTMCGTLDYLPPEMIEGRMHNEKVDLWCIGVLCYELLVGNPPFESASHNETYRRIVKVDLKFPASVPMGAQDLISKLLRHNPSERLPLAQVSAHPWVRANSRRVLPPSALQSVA

[2] = tested on: Hepatocyte growth factor receptor (Homo sapiens), P08581 [M1250T]; test: (§1) Selectivity interaction (KinomeScan (DiscoverX)) EUB0000702a MET
Chain of Hepatocyte growth factor receptor (Homo sapiens), P08581 [M1250T] (P08581 whole entry M1250T): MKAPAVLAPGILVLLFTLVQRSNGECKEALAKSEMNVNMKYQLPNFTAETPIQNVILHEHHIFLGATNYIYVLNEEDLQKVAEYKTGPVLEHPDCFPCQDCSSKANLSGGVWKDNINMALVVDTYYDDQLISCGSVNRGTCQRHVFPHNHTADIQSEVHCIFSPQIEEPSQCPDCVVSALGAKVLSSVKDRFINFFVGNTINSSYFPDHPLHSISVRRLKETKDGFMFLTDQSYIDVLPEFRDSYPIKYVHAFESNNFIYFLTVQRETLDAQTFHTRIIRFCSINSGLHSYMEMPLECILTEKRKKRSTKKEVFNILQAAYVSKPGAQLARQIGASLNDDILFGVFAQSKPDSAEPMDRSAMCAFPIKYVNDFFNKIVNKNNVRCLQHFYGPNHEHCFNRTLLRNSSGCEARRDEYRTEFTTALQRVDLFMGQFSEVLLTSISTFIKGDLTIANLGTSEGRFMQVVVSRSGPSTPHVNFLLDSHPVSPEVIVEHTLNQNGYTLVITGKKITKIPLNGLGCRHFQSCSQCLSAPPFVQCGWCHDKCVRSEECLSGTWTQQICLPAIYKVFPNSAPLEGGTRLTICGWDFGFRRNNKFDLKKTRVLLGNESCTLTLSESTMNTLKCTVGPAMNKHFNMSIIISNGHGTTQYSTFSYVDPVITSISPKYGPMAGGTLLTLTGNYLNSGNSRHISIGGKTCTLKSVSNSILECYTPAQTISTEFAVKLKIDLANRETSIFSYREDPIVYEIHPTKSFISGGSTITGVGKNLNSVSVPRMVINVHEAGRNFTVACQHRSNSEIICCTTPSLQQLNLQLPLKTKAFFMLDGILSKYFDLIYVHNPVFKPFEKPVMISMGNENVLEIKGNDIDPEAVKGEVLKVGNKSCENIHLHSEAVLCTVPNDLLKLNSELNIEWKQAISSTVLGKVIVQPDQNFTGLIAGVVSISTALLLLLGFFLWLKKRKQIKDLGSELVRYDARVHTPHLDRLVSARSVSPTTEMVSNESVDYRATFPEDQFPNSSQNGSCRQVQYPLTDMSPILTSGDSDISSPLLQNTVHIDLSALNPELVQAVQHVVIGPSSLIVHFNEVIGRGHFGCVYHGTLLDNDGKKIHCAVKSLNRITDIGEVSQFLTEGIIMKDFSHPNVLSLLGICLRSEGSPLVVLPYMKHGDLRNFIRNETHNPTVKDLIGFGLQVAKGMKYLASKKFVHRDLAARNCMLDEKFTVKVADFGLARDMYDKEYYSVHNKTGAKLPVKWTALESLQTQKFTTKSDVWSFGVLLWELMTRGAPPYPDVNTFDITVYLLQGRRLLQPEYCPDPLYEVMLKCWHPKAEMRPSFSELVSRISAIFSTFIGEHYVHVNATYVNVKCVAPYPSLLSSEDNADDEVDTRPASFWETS

[3] = tested on: Hepatocyte growth factor receptor (Homo sapiens), P08581 [Y1235D]; test: as §1
Chain of Hepatocyte growth factor receptor (Homo sapiens), P08581 [Y1235D] (P08581 whole entry Y1235D): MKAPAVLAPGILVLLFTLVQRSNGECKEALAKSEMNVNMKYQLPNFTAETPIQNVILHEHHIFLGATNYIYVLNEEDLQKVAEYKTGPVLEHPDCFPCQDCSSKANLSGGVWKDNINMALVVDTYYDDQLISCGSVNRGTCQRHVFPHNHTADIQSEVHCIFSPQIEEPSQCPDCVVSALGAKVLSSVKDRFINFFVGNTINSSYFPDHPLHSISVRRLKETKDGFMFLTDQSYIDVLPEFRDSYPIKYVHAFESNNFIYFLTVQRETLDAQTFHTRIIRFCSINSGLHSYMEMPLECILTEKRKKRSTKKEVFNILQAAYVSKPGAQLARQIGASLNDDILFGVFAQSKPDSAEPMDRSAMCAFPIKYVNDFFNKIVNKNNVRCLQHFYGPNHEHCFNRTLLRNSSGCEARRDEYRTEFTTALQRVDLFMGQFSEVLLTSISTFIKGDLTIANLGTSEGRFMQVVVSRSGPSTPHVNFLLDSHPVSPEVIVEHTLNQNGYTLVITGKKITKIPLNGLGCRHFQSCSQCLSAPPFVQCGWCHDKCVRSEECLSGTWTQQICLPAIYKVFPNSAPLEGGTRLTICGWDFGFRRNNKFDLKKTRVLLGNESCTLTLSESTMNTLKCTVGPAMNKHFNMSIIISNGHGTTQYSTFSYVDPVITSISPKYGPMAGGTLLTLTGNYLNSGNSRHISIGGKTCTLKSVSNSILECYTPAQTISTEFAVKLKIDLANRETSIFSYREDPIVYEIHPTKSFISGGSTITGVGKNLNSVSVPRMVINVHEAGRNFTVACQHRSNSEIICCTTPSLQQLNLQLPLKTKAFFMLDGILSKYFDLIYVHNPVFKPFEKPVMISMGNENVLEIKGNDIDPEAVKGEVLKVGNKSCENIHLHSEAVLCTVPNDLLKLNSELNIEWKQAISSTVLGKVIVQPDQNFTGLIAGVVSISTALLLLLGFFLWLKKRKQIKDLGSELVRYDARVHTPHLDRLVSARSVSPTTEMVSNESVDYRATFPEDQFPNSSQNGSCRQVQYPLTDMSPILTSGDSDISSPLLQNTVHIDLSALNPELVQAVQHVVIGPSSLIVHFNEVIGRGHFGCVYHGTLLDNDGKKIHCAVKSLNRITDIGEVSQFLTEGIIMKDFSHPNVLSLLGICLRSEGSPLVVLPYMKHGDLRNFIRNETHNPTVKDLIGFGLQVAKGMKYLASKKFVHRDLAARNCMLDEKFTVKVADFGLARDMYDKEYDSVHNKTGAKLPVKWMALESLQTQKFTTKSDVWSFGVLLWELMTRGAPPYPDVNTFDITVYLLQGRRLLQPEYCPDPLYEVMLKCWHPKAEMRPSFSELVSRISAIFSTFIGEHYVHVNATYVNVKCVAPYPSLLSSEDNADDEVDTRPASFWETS

[4] = molecular target: Tyrosine-protein kinase JAK1 (Homo sapiens, UniProt P23458); test: Selectivity interaction (KinomeScan (DiscoverX)) EUB0000178b JAK1@kinase 2
Chain of Tyrosine-protein kinase JAK1 (P23458 whole entry, canonical isoform): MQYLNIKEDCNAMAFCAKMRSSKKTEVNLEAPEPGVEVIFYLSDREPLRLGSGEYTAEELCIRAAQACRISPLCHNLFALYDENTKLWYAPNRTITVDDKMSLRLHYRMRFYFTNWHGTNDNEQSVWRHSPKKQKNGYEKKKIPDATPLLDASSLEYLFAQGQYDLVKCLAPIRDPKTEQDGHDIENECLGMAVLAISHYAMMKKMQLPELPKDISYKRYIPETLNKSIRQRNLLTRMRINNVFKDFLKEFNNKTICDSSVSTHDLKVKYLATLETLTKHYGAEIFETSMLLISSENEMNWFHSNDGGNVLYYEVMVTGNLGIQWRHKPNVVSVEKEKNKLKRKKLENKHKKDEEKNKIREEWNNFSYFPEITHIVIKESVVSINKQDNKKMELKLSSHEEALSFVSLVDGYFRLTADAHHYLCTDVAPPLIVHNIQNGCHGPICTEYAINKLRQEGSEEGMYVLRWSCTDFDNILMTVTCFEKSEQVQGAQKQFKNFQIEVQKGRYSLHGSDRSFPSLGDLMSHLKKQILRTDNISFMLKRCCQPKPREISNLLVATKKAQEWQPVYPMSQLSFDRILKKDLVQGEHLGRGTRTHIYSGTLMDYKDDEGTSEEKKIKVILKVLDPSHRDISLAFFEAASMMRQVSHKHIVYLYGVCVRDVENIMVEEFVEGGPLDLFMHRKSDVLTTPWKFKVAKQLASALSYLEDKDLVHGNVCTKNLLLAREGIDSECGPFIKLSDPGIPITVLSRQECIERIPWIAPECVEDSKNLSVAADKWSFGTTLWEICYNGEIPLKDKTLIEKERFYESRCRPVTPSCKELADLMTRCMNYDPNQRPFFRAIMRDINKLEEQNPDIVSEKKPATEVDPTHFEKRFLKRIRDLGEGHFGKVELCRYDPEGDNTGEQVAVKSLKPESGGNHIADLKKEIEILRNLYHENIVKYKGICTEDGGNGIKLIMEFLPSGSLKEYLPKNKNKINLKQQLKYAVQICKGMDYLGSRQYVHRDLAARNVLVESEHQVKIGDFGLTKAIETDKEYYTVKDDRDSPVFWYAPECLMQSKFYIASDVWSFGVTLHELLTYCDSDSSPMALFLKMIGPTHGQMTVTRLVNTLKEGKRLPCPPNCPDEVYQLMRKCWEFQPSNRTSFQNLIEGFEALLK

[5] = molecular target: Phosphatidylinositol 4,5-bisphosphate 3-kinase catalytic subunit gamma isoform (Homo sapiens, UniProt P48736); test: Selectivity interaction (KinomeScan (DiscoverX)) EUB0000178b PIK3CG
[6] = molecular target: T2, Serine/threonine-protein kinase ULK2 (Homo sapiens) (UniProt Q8IYT8); test: Selectivity interaction (KinomeScan (DiscoverX)) EUB0000178b ULK2
T2 sequence (whole entry): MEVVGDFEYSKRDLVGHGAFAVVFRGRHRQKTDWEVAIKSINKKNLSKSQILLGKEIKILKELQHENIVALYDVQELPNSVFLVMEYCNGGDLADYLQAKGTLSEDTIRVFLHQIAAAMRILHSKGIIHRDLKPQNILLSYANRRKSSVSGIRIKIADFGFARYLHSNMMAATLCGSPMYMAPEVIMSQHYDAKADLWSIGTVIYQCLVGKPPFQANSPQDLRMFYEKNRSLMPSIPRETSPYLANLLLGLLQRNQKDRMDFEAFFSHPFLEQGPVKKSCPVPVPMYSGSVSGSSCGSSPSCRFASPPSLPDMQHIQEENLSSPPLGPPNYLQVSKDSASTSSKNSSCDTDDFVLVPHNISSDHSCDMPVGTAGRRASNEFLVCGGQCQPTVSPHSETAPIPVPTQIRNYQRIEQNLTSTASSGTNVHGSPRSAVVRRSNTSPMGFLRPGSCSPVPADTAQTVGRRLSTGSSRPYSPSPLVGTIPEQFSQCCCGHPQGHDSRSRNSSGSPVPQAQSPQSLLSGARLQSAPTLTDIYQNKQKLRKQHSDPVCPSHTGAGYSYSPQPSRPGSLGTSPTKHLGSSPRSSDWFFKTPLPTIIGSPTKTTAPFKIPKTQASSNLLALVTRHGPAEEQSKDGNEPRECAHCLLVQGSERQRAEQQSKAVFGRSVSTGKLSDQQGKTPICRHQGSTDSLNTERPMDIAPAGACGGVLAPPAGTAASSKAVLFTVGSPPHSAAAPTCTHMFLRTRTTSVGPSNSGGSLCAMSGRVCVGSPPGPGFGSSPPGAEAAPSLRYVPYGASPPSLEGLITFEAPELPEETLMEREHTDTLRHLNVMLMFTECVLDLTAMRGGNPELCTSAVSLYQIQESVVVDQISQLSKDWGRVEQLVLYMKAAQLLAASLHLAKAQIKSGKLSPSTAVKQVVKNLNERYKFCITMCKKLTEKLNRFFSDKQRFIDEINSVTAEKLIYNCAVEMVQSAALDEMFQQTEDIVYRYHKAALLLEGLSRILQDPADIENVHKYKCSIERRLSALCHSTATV

In the case of `CCOc1cn(-c2ccc(F)cc2C)nc1C(=O)Nc1ccc(Oc2ccnc3cc(OC)c(OC)cc23)c(F)c1`, the % of control [1] was under 10% and the % of control (Aurora kinase B) was under 10%.

Molecule `CN(c1ccnc(CNc2nc(Nc3ccc4c(c3)CC(=O)N4)ncc2C(F)(F)F)n1)S(C)(=O)=O` [PF-00911705] has a % of control [2] of 6.8% and a % of control [3] of 10%.

Work on `CN1C(=O)c2sccc2N(C)c2nc(Nc3ccc(S(N)(=O)=O)cc3)ncc21` yielded a % of control [4] of 4.3%, a % of control [5] of 0.15% and a % of control [6] of 4.8%.
